# Experimental data as given in patent US8367713B2, “Inhibition and dispersion of bacterial biofilms with imidazole-triazole derivatives” (North Carolina State University, priority 2008, dated 2013).
# Counter-ions that a name gives are not always drawn.
# What was measured:
# [1] = tested on: E. coli; assay: Biofilm inhibition at 100 μM, E. coli; type: cell-based; conditions: Escherichia coli
# Procedure: Procedure to Determine the Inhibitory Effect of Test Compounds on E. faecium, MRSA, S. epidermidis, PAO1, PA14, E. Coli and MDRAB Biofilm Formation: Inhibition assays were performed by taking an overnight culture of bacterial strain and subculturing it at an OD600 of 0.01 into the necessary media (brain heart infusion for E. faecium, tryptic soy broth with a 0.5% glucose supplement (TSBG) for MRSA, Luria-Bertani (LB) media for MDRAB, Luria-Bertani media without NaCl (LBNS) for PAO1 and PA14, Luria-Bertani (LB) media for E. coli and tryptic soy broth with a 0.5% glucose supplement and a 3.0% NaCl supplement (TGN) for S. epidermidis. Stock solutions of predetermined concentrations of the test compound were then made in the necessary media. These stock solutions were aliquoted (100 μL) into the wells of the 96-well PVC microtiter plate. Sample plates were then wrapped in GLAD Press n′ Seal® followed by an incubation under stationary conditions for 24 h at 37° C. After incubation, the media was discarded from the wells and the plates were washed thoroughly with water. Plates were then stained with 100 μL of 0.1% solution of crystal violet (CV) and then incubated at ambient temperature for 30 min. […] Biofilm inhibition was quantitated by measuring the OD540 of each well in which a negative control lane wherein no biofilm was formed served as a background and was subtracted out. […]
# [2] = tested on: MRSA; assay: Biofilm inhibition at 100 μM, MRSA; type: cell-based; conditions: Staphylococcus aureus, read-out: MRSA % Inhibition
# Procedure: Procedure to Determine the Inhibitory Effect of Test Compounds on E. faecium, MRSA, S. epidermidis, PAO1, PA14, E. Coli and MDRAB Biofilm Formation: Inhibition assays were performed by taking an overnight culture of bacterial strain and subculturing it at an OD600 of 0.01 into the necessary media (brain heart infusion for E. faecium, tryptic soy broth with a 0.5% glucose supplement (TSBG) for MRSA, Luria-Bertani (LB) media for MDRAB, Luria-Bertani media without NaCl (LBNS) for PAO1 and PA14, Luria-Bertani (LB) media for E. coli and tryptic soy broth with a 0.5% glucose supplement and a 3.0% NaCl supplement (TGN) for S. epidermidis. Stock solutions of predetermined concentrations of the test compound were then made in the necessary media. These stock solutions were aliquoted (100 μL) into the wells of the 96-well PVC microtiter plate. Sample plates were then wrapped in GLAD Press n′ Seal® followed by an incubation under stationary conditions for 24 h at 37° C. After incubation, the media was discarded from the wells and the plates were washed thoroughly with water. Plates were then stained with 100 μL of 0.1% solution of crystal violet (CV) and then incubated at ambient temperature for 30 min. Plates were washed with water again and the remaining stain was solubilized with 200 μL of 95% ethanol. A sample of 125 μL of solubilized CV stain from each well was transferred to the corresponding wells of a polystyrene microtiter dish. Biofilm inhibition was quantitated by measuring the OD540 of each well in which a negative control lane wherein no biofilm was formed served as a background and was subtracted out.
# Biofilm inhibition has been tested for the following compounds, each of which was tested at a concentration of 100 μM.
# [3] = tested on: pre-formed A. baumannii biofilms; assay: Static bacterial biofilm dispersion assay, A. baumannii; type: cell-based; conditions: Acinetobacter baumannii
# Procedure: (§1) General Static Bacterial Biofilm Dispersion Assay Procedure for A. baumannii, P. aeruginosa and S. aureus: Dispersion assays were performed by taking an overnight culture of bacterial strain and subculturing it at an OD600 of 0.01 into the necessary growth liquid medium. The resulting bacterial suspension was aliquoted (100 μL) into the wells of a 96-well PVC microtiter plate. Plates were then wrapped in GLAD Press n′ Seal® followed by an incubation under stationary conditions at an ambient temperature. After 24 hours, the media was discarded from the wells and the plates were washed thoroughly with tap water. Predetermined concentrations of the compound were then made in the same medium used to initially grow the biofilms and then aliquoted (100 μL) into the wells of the 96-well PVC microtiter plate with the established biofilms. Plates were then wrapped in GLAD Press n′ Seal® and incubated under stationary conditions at 37° C. After 24 hours, the media was discarded from the wells and the plates were washed thoroughly with tap water. Plates were then stained with 100 μL of 0.1% solution of crystal violet (CV) and then incubated at room temperature for 30 minutes. Plates were then washed with tap water again and the remaining stain was solubilized with 200 μL of 95% ethanol. Biofilm dispersion was quantitated by measuring the OD540 for each well by transferring 125 μL of the solubilized CV stain into a polystyrene microtiter dish for analysis.
# [4] = tested on: A. baumannii planktonic growth; assay: Planktonic growth curves and colony counts, A. baumannii; type: cell-based, Acinetobacter baumannii; conditions: FIGS. 3A, 4A
# Procedure: (§2) The OD600 was recorded at 1, 3, 4, 5, 6 and 24 hours.
# (§3) General Colony Count Procedure for A. baumannii, P. aeruginosa, B. bronchiseptica and S. aeureus: Colony counts were performed by incubating either bacterial strain in the presence and absence of the test compound at 37° C. in culture tubes until the sample with the absence of the test compound reached an OD600 of 0.40 from a starting OD600 of 0.01. This typically took three to four hours. Once the OD600 of approximately 0.40 was observed, 100 μL were taken from each culture tube from which serial dilutions were made. Then, 10 μL were removed from each serial dilution and plated out on a square gridded petri-dish followed by 16 hours of incubation at 37° C. period (48 hours for B. bronchiseptica) to grow countable colonies. Viable bacteria were quantified through employment of the track-dilution method (Jett et al., Bio Techniques. 1997, 23, 648-650).
# [5] = tested on: A. baumannii biofilms; assay: Static bacterial biofilm inhibition assay (crystal violet), A. baumannii; type: cell-based, Acinetobacter baumannii; conditions: Acinetobacter baumannii, read-out: IC50 of biofilm inhibition, A. baumannii
# Procedure: (§4) Each 2-AIT conjugate was initially screened at 300 μM for their ability to inhibit P. aeruginosa PAO1 and PA14 biofilms, A. baumannii biofilms and B. bronchiseptica Rb50 biofilms using a crystal violet reporter assay (G. A. O'Toole, R. Kolter, Molecular Microbiology 1998, 2, 295-304). […] This is an order of magnitude increase in activity when compared to DHS (J. J. Richards, R. W. Huigens, T. E. Ballard, A. Basso, J. Cavanagh, C. Melander, Chemical Communications 2008, 14, 1698-1700). […] 6 also dispersed pre-formed A. baumanni biofilms with an EC50 of 400 μM (FIG. 2A).
# (§5) General Static Bacterial Biofilm Inhibition Assay Procedure for A. baumannii, P. aeruginosa, B. bronchiseptica and S. aureus: Biofilm inhibition assays were performed by taking an overnight culture of bacterial strain and subculturing it at an OD600 of 0.01 into the necessary growth liquid medium (LB for A. baumannii, LBNS for P. aeruginosa, Stainer Scholte medium that was supplemented with […] of 100× nutrient complex for B. bronchiseptica and TSBG for S. aureus) for the strain. The compound being tested was then added at a predetermined concentration and then aliquoted (100 μL) into the wells of a 96-well PVC microtiter plate (Wells not used for samples are filled with 100 μL of de-ionized water). Plates were then wrapped in GLAD Press n′ Seal® and incubated under stationary conditions at 37° C. After 24 hours, the media was discarded from the wells and the plates were washed thoroughly with tap water. Plates were then stained with 100 μL of 0.1% solution of crystal violet (CV) and then incubated at an ambient temperature for 30 minutes. Sample plates were then washed with tap water again and the remaining stain was solubilized with 200 μl, of 95% ethanol. Biofilm inhibition was quantitated by measuring the OD540 for each well by transferring 125 μL of the solubilized CV stain into a polystyrene microtiter dish for analysis.
# [6] = tested on: P. aeruginosa PA14 biofilms; assay: Static bacterial biofilm inhibition assay (crystal violet), PA14; type: cell-based; conditions: Pseudomonas aeruginosa; P. aeruginosa PA14
# Procedure: as §4, §5
# [7] = tested on: A. baumannii, PAO1, PA14, Rb50, S. aureus (each bacterial strain); assay: Planktonic growth curves and colony counts, each bacterial strain; type: cell-based; conditions: each bacterial strain grown in the presence of compound
# Procedure: as §2, §3
# [8] = tested on: P. aeruginosa PAO1 biofilms; assay: Static bacterial biofilm inhibition assay (crystal violet), PAO1; type: cell-based; conditions: Pseudomonas aeruginosa
# Procedure: as §4, §5
# [9] = tested on: Staphylococcus aureus biofilm; assay: Static bacterial biofilm inhibition assay (crystal violet), S. aureus; type: cell-based
# Procedure: as §5
# [10] = tested on: pre-formed P. aeruginosa PA14 biofilms; assay: Static bacterial biofilm dispersion assay, PA14; type: cell-based; conditions: Pseudomonas aeruginosa
# Procedure: as §1
# [11] = tested on: pre-formed S. aureus biofilms; assay: Static bacterial biofilm dispersion assay, S. aureus; type: cell-based; conditions: Staphylococcus aureus
# Procedure: as §1
# [12] = tested on: pre-formed P. aeruginosa PAO1 biofilms; assay: Static bacterial biofilm dispersion assay, PAO1; type: cell-based; conditions: Pseudomonas aeruginosa
# Procedure: as §1
# [13] = tested on: B. bronchiseptica Rb50 biofilms; assay: Static bacterial biofilm inhibition assay (crystal violet), Rb50; type: cell-based; conditions: Bordetella bronchiseptica, RB50BIOFILMS
# Procedure: as §4, §5
# [14] = tested on: pre-formed B. bronchiseptica Rb50 biofilms; assay: Static bacterial biofilm dispersion assay, Rb50; type: cell-based; conditions: Bordetella bronchiseptica
# Procedure: as §1
# General Static Bacterial Biofilm Dispersion Assay Procedure for B. bronchiseptica: This procedure is identical to the general dispersion procedure described above except that initial biofilm formation in the absence of the test compound was carried out at 37° C.
smiles,measurement,setting,value
"CCCCCCCCCCNC(=O)Cn1cc(CCCc2c[nH]c(N)n2)nn1 [2-{4-[3-(2-amino-1H-imidazol-4-yl)-propyl]-[1,2,3]triazol-1-yl}-N-decyl-acetamide hydrochloride]",inhibition at 100 µM,[1],62.7 ± 0.4%
same,inhibition at 100 µM,[2],99 ± 1%
"CCCCCCCCCCCCCCNC(=O)Cn1cc(CCCc2c[nH]c(N)n2)nn1 [2-{4-[3-(2-amino-1H-imidazol-4-yl)-propyl]-[1,2,3]triazol-1-yl}-N-tetradecyl-acetamide hydrochloride]",inhibition at 100 µM,[1],35.6 ± 0.6%
same,inhibition at 100 µM,[2],90.8 ± 8%
"C/C(=C\c1ccccc1)Cn1cc(CCCc2c[nH]c(N)n2)nn1 [Compound 6, 5-{3-[1-(2-Methyl-3-phenyl-allyl)-1H-[1,2,3]triazol-4-yl]-propyl}-1H-imidazol-2-ylamine hydrochloride]",EC50,[3],400 µM
same,effect on planktonic growth (growth curves and colony counts),[4],no effect on planktonic growth
same,IC50,[5],12 µM
"C/C(=C\c1ccccc1)Cn1cc(CCCCCCc2c[nH]c(N)n2)nn1 [Compound 12, 4-{6-[1-(2-Methyl-3-phenyl-allyl)-1H-[1,2,3]triazol-4-yl]-hexyl}-1H-imidazol-2-ylamine hydrochloride]",IC50,[6],22 µM
same,bactericidal / microbicidal activity (colony counts and growth curves),[7],not due to microbicidal activity
same,EC50,[3],36 µM
same,IC50,[8],2.7 µM
same,IC50,[9],4.6 µM
same,EC50,[10],48 µM
same,EC50,[11],37 µM
same,EC50,[12],51 µM
same,IC50,[5],6.8 µM
same,IC50,[13],70 µM
same,EC50,[14],75 µM
